In patent US4510338A, “Resorcin derivatives, process for their preparation and pharmaceutical compositions containing them” (priority 1982, dated 1985):

Key:
ethanolic narcosis = assay: Ethanolic narcosis period (righting reflex); assay type: in vivo, Hann.-Wistar rats; conditions: for Ethanolic narcosis period (x ± S.E. %), related to control: 1 h before 3.5 g/kg ethanol i.p., n=10
Method: The change of ethanolic narcosis period was tested on Hann.-Wistar rats of both sexes weighing 160 to 180 g. each, which were fasted for 16 hours prior to treatment. Groups of ten were treated with various doses of a test compound of the formula (I), orally. One hour after treatment the rats were administered a 3.5 g./kg. dose of ethanol intraperitoneally. The narcosis period of the animals was measured from the elapse of the righting reflex until a spontaneous correction of the body position. The average of the narcosis period and the percentage difference related to the control were calculated. The control group was treated with placebo and a […]. dose of ethanol. Control narcosis period: 99.6±6.55 (x±S.E.) min.

[1] = tested on: alcoholic intoxication, narcosis; conditions: Sprince et al. 1974; Nagasawa et al. 1975; cited from earlier work
[2] = tested on: ataxia induced by ethanol; assay: Ataxia induced by ethanol, rotarod test; assay type: in vivo, BALB/c mice
Method: Previously trained and selected BALB/c mice weighing 16 to 18 g. each were treated with a 40 mg./kg. dose of the compound to be tested orally, one hour before the intraperitoneal administration of a 2.5 g./kg. dose of ethanol. The number of the animals remaining on the rods 60, 90 and 120 minutes, resp., after treatment with ethanol was determined. The animals having an intact coordination could stay at the rod as long as 120 minutes. The test was carried out on groups of ten.

in vivo = conditions: rat, oral, male Hann.-Wistar rats, 14 days observation, probit analysis
Method: The acute toxicity of the compounds according to the invention was tested on male Hann.-Wistar rats each weighing 160 to 180 g. The animals were treated with various doses of the test compounds orally, and the dose resulting in the perish of 50% of the animals was calculated by probite analysis from the %-age of the perished animals.

[3] = tested on: ethanolic locomotor activity; assay: Locomotor activity change by ethanol (Animex BSE motimeter); assay type: in vivo, BALB/c mice; conditions: n=15
Method: The change of ethanolic locomotor activity was tested on BALB/c mice of both sexes, weighing 16 to 18 g. each. Groups of 15 were treated with a 40 mg./kg. oral dose of the test compound 60 minutes prior to the administration of placebo and 2 g./kg. ethanol, respectively (i.p.).
The control animals were treated with placebo. The locomotor activity of the animals was measured for two hours with an Animex BSE motimeter.

[4] = tested on: ethanolic locomotoric hyperactivity; conditions: mice, Carlsson et al. 1972, cited from earlier work

SMILES: N[C@@H](CS)C(=O)O [L-cysteine, reference compound]
- Ethanolic narcosis period (x ± S.E. %), related to control (ethanolic narcosis; 500.0 mg/kg orally): 63 ± 4.2%
- Dose dependence of effect on ethanolic narcosis period (ethanolic narcosis; rats, oral): dose-dependent, unlike that of L-cysteine
- Alcoholic intoxication, narcosis duration [1]: shortened

SMILES: CCC(O)(c1cccc(C(F)(F)F)c1)c1ccc(O)cc1O (stereo not drawn) [A, 4-[1-(3-trifluoromethylphenyl)-1-hydroxypropyl]-resorcin]
- Ethanolic narcosis period (x ± S.E. %), related to control (ethanolic narcosis; 0.3 mg/kg orally): 70 ± 11.4%
- Ethanolic narcosis period (x ± S.E. %), related to control (ethanolic narcosis; 1.0 mg/kg orally): 60 ± 9.2%
- Ethanolic narcosis period (x ± S.E. %), related to control (ethanolic narcosis; 5.0 mg/kg orally): 36 ± 4.0%
- Ethanolic narcosis period (x ± S.E. %), related to control (ethanolic narcosis; 20.0 mg/kg orally): 30 ± 5.5%
- Animals remaining on the rotating rod (%) ([2]; 40 mg/kg oral + 2500 mg/kg ethanol i.p., 60 min): 40%
- Animals remaining on the rotating rod (%) ([2]; 40 mg/kg oral + 2500 mg/kg ethanol i.p., 90 min): 60%
- Animals remaining on the rotating rod (%) ([2]; 40 mg/kg oral + 2500 mg/kg ethanol i.p., 120 min): 100%
- Animals remaining on the rotating rod (%) ([2]; 40 mg/kg oral, no ethanol, 60 min): 100%
- Animals remaining on the rotating rod (%) ([2]; 40 mg/kg oral, no ethanol, 90 min): 100%
- Animals remaining on the rotating rod (%) ([2]; 40 mg/kg oral, no ethanol, 120 min): 100%
- LD50 at 336 h (in vivo): 1250 mg/kg
- Total locomotor motion/2 hours in % of the control ([3]; 40 mg/kg oral + placebo (no ethanol)): 110 ± 10.3%
- Total locomotor motion/2 hours in % of the control ([3]; 40 mg/kg oral, 60 min before 2000 mg/kg ethanol i.p.): 98 ± 9.5%

SMILES: CC(N)(Cc1ccc(O)cc1)C(=O)O (stereo not drawn) [α-Methyl-para-tyrosine]
- Spontaneous locomotoric activity ([4]; same dose range): decreases the spontaneous locomotoric activity
- Ethanolic locomotoric hyperactivity [4]: normalizes the ethanolic locomotoric hyperactivity
